ChEMBL document CHEMBL2424647, “Molecular docking studies of the interaction between propargylic enol ethers and human DNA topoisomerase IIα” (2013)

What was measured:
Type in all cases: functional
SW1573 = experiment: Growth inhibition of human SW1573 after 48 hrs; settings: SW1573, 48 h
HeLa = experiment: Growth inhibition of human HeLa after 48 hrs
HBL-100 = experiment: Growth inhibition of human HBL100 after 48 hrs; settings: HBL-100, 48 h
WiDr = experiment: Growth inhibition of human WiDr after 48 hrs

Row | GI50 (SW1573) | GI50 (HeLa) | Compound | GI50 (HBL-100) | GI50 (WiDr)
1 | 8.4 µM | 2.9 µM | CCCCC[C@@H](C#CC(=O)OC)O/C=C/C(=O)OC | 2.3 µM | 24 µM
2 | 5.5 µM | 2.6 µM | CCCCC[C@H](C#CC(=O)OC)O/C=C/C(=O)OC | 3.3 µM | 26 µM
3 | 1.3 µM | 17 µM | CCCCCC(C#CC(=O)OC)O/C=C/C(=O)OC (racemic) | 2.7 µM | 13 µM
4 | 0.42 µM | 3.4 µM | CCCCC(C#CC(=O)OC)O/C=C/C(=O)OC (racemic) | 0.47 µM | 3.6 µM
